Laboratory results as given in patent publication US5296481A, “Treatment process for promoting weight loss employing a substituted Δ 5” (Humanetics Corporation, priority 1992, dated 1994).

How the values were obtained:
[1] = system: Mitochondrial G3P-DH (glycerol 3-phosphate dehydrogenase), rat liver; experiment: Mitochondrial G3P-DH activity in liver of steroid-fed rats (enzyme induction in rat liver by C19 steroids); format: in vivo, rat (male Sprague Dawley); details: 6 days, rat liver mitochondria
Source text: (§1) Administration of Hormone: Male Sprague Dawley rats weighing 125-150 gm were obtained from Sasco Inc. of Oregon, Wis. The rats were allowed free access to water and Purina Rat Chow pellets for the first day after arrival Administration of the steroids began on day two. The steroids were either administered orally (combined with the Purina Rat Chow) or injected intraperitoneal as set forth in Table 1 for 6 days.
(§2) Preparation of Liver Mitochondria and Cytosol. The treated rats were sacrificed by decapitation after 6 days of treatment. The livers were excised, placed in 10 ml of a buffer consisting of 250 mM mannitol, 70 mM sucrose, and 3 mM Hepes (hereinafter MSH buffer) at pH 7.4, weighed, removed from the buffer, minced with scissors, washed with MSH buffer, suspended in MSH buffer at a ratio of 1 gram minced liver to 5 ml MSH buffer, and homogenized with a Potter-Elvehjem rotary homogenizer.
The Mitochondria fraction was prepared by the method described in Johnson, D. and Lardy, H. A., Methods Enzymology, vol. 10, pp 94-96 (1967) which is hereby incorporated by reference. Briefly, liver homogenate was centrifuged in a Beckman Model J2-21 centrifuge, JA-20 rotor at 750 g for 10 minutes and the resulting supernatant solution centrifuged at 15,000 g for an additional 10 minutes. The resulting mitochondrial pellets were washed twice with MSH buffer, resuspended in 0.8 to 1 ml of a 35 wt % aqueous glycerol solution, and stored at -70° C.
(§3) Protein concentrations in the resultant preparations were determined by the Biuret method described in Layne E., Methods Enzymology, vol. 3, pp 450451 (1957) which is hereby incorporated by reference. Briefly, the protein concentrations were determined by treating a dilute protein solution with copper tartrate solution and measuring the optical density at 540 nm.
Enzyme Assays. Mitochondrial G3P-DH activity was measured by the method described in Wernette, M. E., Ochs, R. S., and Lardy, H. A., J. Biol. Chem., vol. 256, pp 12767-12771 (1981) which is a modified version of the method described in Gardner, R. S., Anal. Biochem., vol. 59, pp 272-276 (1974). Both references are hereby incorporated by reference. Briefly, aliquots of the previously prepared mitochondria containing 0.1 to 0.2 mg of protein were incubated in a test tube containing 50 mM sn-glycerol-3-P,50 mM potassium phosphate (pH 7.0), 1 mM KCN, and 0.2% p-iodonitrotetrazolium violet in a total volume of 0.4 ml for 30 min at 37° C. The incubating mitochondria were continuously agitated during the incubation period by a Dubnoff shaker agitated at 100 cycles/min. Incubation was ceased by the addition of 0.6 ml of 1M acetic acid to the test tube. The iodoformazan formed during the incubation period was extracted into 2 ml of ethyl acetate by adding the ethyl acetate to the test tube, mixing thoroughly, and then decanting the ethyl acetate containing the iodoformazan from the test tube. The optical densities of the iodoformazan containing ethyl acetate layers were read at 490 nm by means of an On Line Instrument Systems, Model 3820 Data System, Spectrophotometry, Cary--15, Version 4 08. An extinction coefficient value of 2.01×10^4 /(M cm) for the iodoformazan product in ethyl acetate was used to calculate enzyme activities.

[2] = system: Cytosolic malic enzyme, rat liver; experiment: Cytosolic malic enzyme activity in liver of steroid-fed rats (enzyme induction in rat liver by C19 steroids); format: in vivo, rat (male Sprague Dawley); details: 6 days, rat liver cytosol
Source text: as §1, §2
The Cytosolic fraction was obtained by recentrifuging the previously centrifuged supernatant solution at 100,000 g for 30 minutes in a Beckman Model L2 ultracentrifuge, type 40 rotor. The resultant supernatant solution was stored at -70° C.
as §3
Cytosolic malic enzyme activity was measured in accordance with the method described in Hsu, R. Y. and Lardy, H. A., Methods Enzymol., vol. 8, pp 230-235 (1967). Briefly, aliquots of the previously prepared cytosol containing 0.1 to 0.5 mg of protein were incubated in a test tube containing 0.8 mM malate, 67 mM triethanolamine buffer (pH 7.4), 4 mM MnCl2, and 0.2 mM NADP in a total volume of 1 ml for 3 min at 26° C. Activity of malic enzyme was calculated from the rate of change in optical density measured at 340 nm from 0.5 to 2 minutes with an On Line Instrument Systems, Model 3820 Data System, Spectrophotometry, Cary--15, Version 4.08.

SMILES	G3P-DH (% control) ([1]; 0.01 wt % steroid in diet)	G3P-DH (% control) ([1]; 0.1 wt % steroid in diet)	Malic Enzyme (% control) ([2]; 0.01 wt % steroid in diet)	Malic Enzyme (% control) ([2]; 0.1 wt % steroid in diet)	G3P-DH (% control) ([1]; 0.05 wt % steroid in diet)	Malic Enzyme (% control) ([2]; 0.05 wt % steroid in diet)	other results
C[C@]12CC[C@H]3[C@@H]([C@H](O)C=C4C[C@@H](O)CC[C@@]43C)[C@@H]1CC[C@@H]2O [Δ5-Androstene 3β,7α,17β-triol]	99 % control	227 % control	108 % control	611 % control	–	–	–
C[C@]12CC[C@H](O)CC1=CC(=O)[C@@H]1[C@@H]2CC[C@]2(C)C(=O)CC[C@@H]12 [7-keto DHEA, Δ5-Androstene-3β-ol-7,17-dione]	183 % control	220 % control	229 % control	350 % control	439 % control	449 % control	G3P-DH (% control) ([1]; 0.0575 wt % steroid in diet): 224 % control; Malic Enzyme (% control) ([2]; 0.0575 wt % steroid in diet): 341 % control
C[C@]12CC[C@H]3[C@@H]([C@H](O)C=C4C[C@@H](O)CC[C@@]43CO)[C@@H]1CCC2=O [Δ5 Androstene 3β,7α,19-ol-17-one, reference compound]	–	117 % control	–	118 % control	–	–	–
CC1C=C2C[C@@H](O)CC[C@]2(C)[C@H]2CC[C@]3(C)C(=O)CC[C@H]3[C@H]12 (stereo partly drawn) [Δ5-Androstene-3β-ol-7-methyl-17-one, reference compound]	–	91 % control	–	121 % control	–	–	–
C[C@]12CC[C@H](O)CC1=CC[C@@H]1[C@@H]2CC[C@]2(C)C(=O)CC[C@@H]12 [DHEA, Δ5-androstene 3β-hydroxy, 17-one, reference compound]	139 % control	265 % control	64 % control	394 % control	251 % control	337 % control	G3P-DH (% control) ([1]; 0.2 wt % steroid in diet): 380 % control; Malic Enzyme (% control) ([2]; 0.2 wt % steroid in diet): 512 % control
CC(=O)O[C@H]1CC[C@@]2(C)C(=CC(=O)[C@@H]3[C@@H]2CC[C@]2(C)C(=O)CC[C@@H]32)C1 [Δ5-Androstene-3β-ol-7,17-one acetate, Δ5-Androstene 3β-acetoxy-7,17-dione]	–	–	–	–	–	–	G3P-DH (% control) ([1]; 0.115 wt % steroid in diet): 261 % control; Malic Enzyme (% control) ([2]; 0.115 wt % steroid in diet): 447 % control
CC(=O)O[C@H]1CC[C@@]2(C)C(=CC(=O)[C@H]3[C@@H]4CC[C@H](OC(C)=O)[C@@]4(C)CC[C@@H]32)C1 [Δ5-androstene 3β,17β-diol-7-one diacetate]	173 % control	–	119 % control	–	–	–	G3P-DH (% control) ([1]; 0.13 wt % steroid in diet): 232 % control; Malic Enzyme (% control) ([2]; 0.13 wt % steroid in diet): 452 % control
C[C@]12CC[C@H]3[C@@H](C(=O)C=C4C[C@@H](O)CC[C@@]43C)[C@@H]1CC[C@@H]2O [Δ5-Androstene 3β,17β-diol-7-one, Δ5-Androstene-3β,17β-diol-7-one]	130 % control	286 % control	175 % control	–	360 % control	305 % control	–
C[C@]12CC[C@H](O)CC1=C[C@@H](O)[C@@H]1[C@@H]2CC[C@]2(C)C(=O)CC[C@@H]12 [Δ5 Androstene 3β,7α-ol-17-one, Δ5-Androstene 3β,7α-diol-17-one]	–	–	–	–	292 % control	423 % control	G3P-DH (% control) ([1]; 0.033 wt % steroid in diet): 308 % control; Malic Enzyme (% control) ([2]; 0.033 wt % steroid in diet): 374 % control
